Experimental findings from patent US4795758A, “5-[2-(pyrrolidin-1-yl)ethoxy]-p-cymene derivatives, the process for the preparation of the said derivatives and drugs in which the said derivatives are present” (priority 1987, dated 1989) are described below.

Each structure is given as a SMILES string. Where a name gives a salt, the structure may show the parent alone. Read-outs that look alike come from different tables or passages of the source.

Series [1] in a line: Toxicity: 50% lethal dose in mice (p.o. and i.v.). To be noted: mouse, in vivo. The text has this:
The following 50% lethal doses were obtained after oral administration (p.o.) and intravenous administration (i.v.) of the substances to mice.

For series [2], the target named is T1, isolated ductus deferens of rats (Rattus norvegicus, UniProt P43140).
T1 construct: Norepinephrine causes contractions of the isolated ductus deferens of rats; from tissue; host or cells: isolated ductus deferens of rats
T1 sequence (P43140 1-466): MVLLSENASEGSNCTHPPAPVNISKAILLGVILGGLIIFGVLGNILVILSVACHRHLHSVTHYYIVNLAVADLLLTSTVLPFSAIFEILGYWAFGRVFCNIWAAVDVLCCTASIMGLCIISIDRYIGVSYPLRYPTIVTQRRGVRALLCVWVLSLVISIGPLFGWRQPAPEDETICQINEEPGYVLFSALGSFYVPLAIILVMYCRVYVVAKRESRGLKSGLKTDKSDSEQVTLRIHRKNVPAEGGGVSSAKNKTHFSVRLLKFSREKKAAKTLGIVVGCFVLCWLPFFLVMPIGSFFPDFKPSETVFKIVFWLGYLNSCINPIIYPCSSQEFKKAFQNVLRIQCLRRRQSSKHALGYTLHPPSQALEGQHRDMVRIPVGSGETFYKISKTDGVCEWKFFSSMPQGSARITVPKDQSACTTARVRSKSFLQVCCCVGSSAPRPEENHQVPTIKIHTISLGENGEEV
Put plainly: In vitro α-adrenolytic activity on isolated ductus deferens. Conditions: negative log of molar concentration requiring doubled norepinephrine concentration, read-out: pA2, α-blocking action towards norepinephrine on isolated ductus deferens (converted). The text has this: (§1) 2.1. - In vitro α-adrenolytic activity
(§2) This was studied on the ductus deferens of rats and on the urethra of rabbits.
(§3) Norepinephrine causes contractions of the isolated ductus deferens of rats and the isolated urethra of rabbits. The presence of α-blocking substances in a bath containing the organ antagonizes these contractions; the use of increasing concentrations of α-blocking substances makes it possible to calculate:
the pA2 of the compounds on the ductus deferens of rats, the pA2 being the negative logarithm of that molar concentration of the product in the presence of which the concentration of norepinephrine has to be doubled in order to obtain the same effect as in the absence of the product; and […]

For series [3], the system named is isolated urethra of rabbits. Nature of the series: In vitro α-adrenolytic activity on isolated urethra. To be noted: rabbit; negative log of molar concentration halving norepinephrine contraction-inducing activity.
Description: as §1, §2, §3
the pD'2 of the compounds on the urethra of rabbits, the pD'2 being the negative logarithm of that molar concentration of the product in the presence of which the contraction-inducing activity of norepinephrine is halved.

Series [4] concerns toxicity of norepinephrine. Put plainly: In vivo adrenolytic activity: protection against norepinephrine-induced death in rats. To be noted: Rattus norvegicus, po; for responders at 50 mg/kg / responders at 25 mg/kg: 0.5 h, 30 min before i.v. norepinephrine 0.4 mg/kg; for responders at 50 mg/kg: 50 mg/kg p.o.; for responders at 25 mg/kg: 25 mg/kg p.o. How it is done: Norepinephrine injected intravenously in high doses causes the death of 100% of the animals within 15 minutes of being injected. The cause of death is pulmonary edema due to the arterial hypertension induced by stimulation of the adrenergic receptors. The oral administration of α-adrenolytic substances before-hand enables the toxicity of norepinephrine to be reduced. The products are administered orally at times varying between 30 minutes and 6 hours before the intravenous injection (i.v.) of norepinephrine (0.4 mg/kg).

Series [5] has as its system arterial hypertension induced by norepinephrine. Nature of the series: In vivo α-blocking activity in anesthetized rabbits: arterial pressure. To be noted: Oryctolagus cuniculus, iv, norepinephrine-induced arterial pressure increase, read-out: ID50 with regard to arterial hypertension. The text has this: (§4) The "in vivo" α-blocking activity in terms of the urethral and vascular pressures in anesthetized rabbits was investigated by intravenous administration of the products B 1007, B 1024, B 1058, B 1125 and B 1134.
(§5) The intravenous injection of norepinephrine causes a dose-dependent increase in the arterial and urethral pressures in rabbits. α-Blocking substances injected intravenously antagonize these pressure increases as a function of dose. The 50% inhibitory dose (ID50), defined as being the dose of product which causes a 50% […] in the effects of norepinephrine on the arterial and urethral pressures, is calculated.

Series [6] has as its system urethral hypertension induced by norepinephrine. Put plainly: In vivo α-blocking activity in anesthetized rabbits: urethral pressure. To be noted: Oryctolagus cuniculus, iv, norepinephrine-induced urethral pressure increase, read-out: ID50 with regard to urethral hypertension.
Description: as §4, §5

Series [7] has as its system arterial pressure. Put plainly: Urethral specificity in anesthetized dogs: arterial hypotension. In kind it is in vivo. Conditions: i.v., dose causing 20% arterial hypotension. The text has this: (§6) The effect of products B 1007, B 1024, B 1125 and B 1134, injected intravenously, on the neurogenic urethral hypertension and the arterial pressure was investigated on anesthetized dogs.
(§7) α-Blocking substances antagonize these increases in urethral pressure as a function of dose and cause arterial hypotension through a blocking action on the vascular receptors.
(§8) The dose which causes a 50% inhibition of the effects of stimulation of the hypogastric nerve on the urethral pressure (ID50) and the dose which causes a 20% arterial hypotension (ED20) are calculated.

Series [8] has as its system neurogenic urethral hypertension (stimulation of the hypogastric nerve). Put plainly: Urethral specificity in anesthetized dogs: neurogenic urethral hypertension. To be noted: Canis lupus familiaris, iv, 50% inhibition of effect of hypogastric nerve stimulation on urethral pressure, read-out: Neurogenic urethral hypertension ID50. The class given is in vivo.
Description: as §6
Electrical stimulation of the hypogastric nerve causes an increase in the urethral pressure by releasing norepinephrine from the sympathetic fibers of the nerve.
as §7, §8

Setting [9] is: intravenous, read-out: LD50 i.v.

A word on the LD50: it is the dose expected to kill half of the subjects tested. On to `Cc1ccc(C(C)C)c(OCCN2CCCC2)c1` [B 1007, 3-[2-(pyrrolidin-1-yl)ethoxy]-p-cymene hydrochloride], for which the 50% lethal dose (LD50) in series [1] (setting [9]) is 75 mg/kg; in series [1] (oral, read-out: LD50 p.o.) it was 330 mg/kg. For the same compound, in series [2], the Kb was 182 nM. Also, the “pD'2, α-blocking action towards norepinephrine on isolated urethra” value in series [3] was 6.88. In series [4], this compound came in with a responders at 50 mg/kg of 60%. Besides, the figures for the ED50 in series [5], in series [6] and in series [8] were 7.63 mg/kg, 0.34 mg/kg and 0.35 mg/kg, respectively. The “Arterial hypotension ED20” value in series [7] is listed as 2 mg/kg.
For `CC(=O)Oc1cc(C(C)C)c(OCCN2CCCC2)cc1C` [B 1024, 2-acetoxy-5-[2-(pyrrolidin-1-yl)ethoxy]-p-cymene hydrochloride], the LD50 in series [1] (setting [9]) came to 18 mg/kg; in series [1] (oral, read-out: LD50 p.o.), 100 mg/kg. The Kb in series [2] is 105 nM. Besides, in series [3], the “pD'2, α-blocking action towards norepinephrine on isolated urethra” value is 6.38. Also, the responders at 25 mg/kg in series [4] came to 70%. Besides, the ED50 amounted to 4.14 mg/kg in series [5], 0.23 mg/kg in series [6] and 0.07 mg/kg in series [8]. The “Arterial hypotension ED20” value in series [7] was found to be 8 mg/kg.
`Cc1cc(OCCN2CCCC2)c(C(C)C)cc1O` [B 1058, 2-hydroxy-5-[2-(pyrrolidin-1-yl)ethoxy]-p-cymene hydrochloride]: the median lethal dose (LD50) stood at 17 mg/kg in series [1] (setting [9]) and 80 mg/kg in series [1] (oral, read-out: LD50 p.o.). In series [2], the Kb was 66.1 nM. Moreover, the “pD'2, α-blocking action towards norepinephrine on isolated urethra” value in series [3] came to 6.69. This compound also displayed a responders at 50 mg/kg in series [4] of 90%. In addition, the ED50 in series [5] amounted to 1.22 mg/kg; in series [6], 0.13 mg/kg.
With `CCC(=O)Oc1cc(C(C)C)c(OCCN2CCCC2)cc1C` [B 1125], the median lethal dose (LD50) in series [1] (oral, read-out: LD50 p.o.) is about 300 mg/kg. In series [2], the Kb was 72.4 nM. For the same compound, the “pD'2, α-blocking action towards norepinephrine on isolated urethra” value in series [3] worked out at 6.25. For the same compound, in series [4], the responders at 25 mg/kg was 60%. Moreover, the ED50 in series [5] came to 5.95 mg/kg; in series [6], 0.36 mg/kg; in series [8] it was 0.09 mg/kg. In addition, the “Arterial hypotension ED20” value in series [7] worked out at 12 mg/kg.
With `CCCCCC(=O)Oc1cc(C(C)C)c(OCCN2CCCC2)cc1C` [B 1131], the 50% lethal dose (LD50) in series [1] (oral, read-out: LD50 p.o.) is about 550 mg/kg. Also, the Kb in series [2] was 105 nM. In series [3], the “pD'2, α-blocking action towards norepinephrine on isolated urethra” value was determined as 6.12. Also, in series [4], the responders at 50 mg/kg turned out to be 60%.
In the same order, the values of `CCCC(=O)Oc1cc(C(C)C)c(OCCN2CCCC2)cc1C` [B 1132, 2-butyryloxy-5-[2-(pyrrolidin-1-yl)-ethoxy]-p-cymene hydrochloride] are about 500 mg/kg, 44.7 nM, 6.0 and 90%.
For the compound `CCCCCCCCCC(=O)Oc1cc(C(C)C)c(OCCN2CCCC2)cc1C` [B 1134], the 50% lethal dose (LD50) in series [1] (setting [9]) was 36 mg/kg; in series [1] (oral, read-out: LD50 p.o.), about 400 mg/kg. Further, in series [2], the Kb is 269 nM. Also, the “pD'2, α-blocking action towards norepinephrine on isolated urethra” value in series [3] is 6.23. For the same compound, the responders at 100 mg/kg in series [4] (100 mg/kg p.o., 4 h before i.v. norepinephrine 0.4 mg/kg) came to 100%. For the same compound, the ED50 was 6.17 mg/kg in series [5], 0.48 mg/kg in series [6] and 0.11 mg/kg in series [8]. The “Arterial hypotension ED20” value in series [7] was 30 mg/kg.
For `CC(=O)Oc1cc(C(C)C)c(OCCN(C)C)cc1C` [Thymoxamine, reference compound], the LD50 in series [1] (setting [9]) stood at 72.5 mg/kg; in series [1] (oral, read-out: LD50 p.o.), 300 mg/kg. Further, the Kb in series [2] is 56.2 nM. In addition, in series [3], the “pD'2, α-blocking action towards norepinephrine on isolated urethra” value is 7.03. In addition, the responders at 50 mg/kg in series [4] was 80%. Also, the ED50 in series [5] is 2.72 mg/kg; in series [6], 0.5 mg/kg; in series [8] it was 0.09 mg/kg. For the same compound, the “Arterial hypotension ED20” value in series [7] is recorded as 0.27 mg/kg.
